# Laboratory results from patent publication US20250332112A1, “IONIZABLE CATIONIC LIPIDS FOR LIPID NANOPARTICLES” (GENEVANT SCIENCES GMBH, priority 2022, published 2025).
# How the values were obtained:
# [1] = system: luciferase activity in the liver; assay: Luciferase activity in liver after intravenous luciferase mRNA LNP; format: in vivo; conditions: 0.5 mg/kg IV, 6 h post-IV administration, BALB/c mice (n = 4)
# Procedure: Frozen aliquots of liver were thawed and homogenized in 1 mL of 1×CCLR (Cell Culture Lysis Reagent) using a FastPrep® homogenizer. The homogenate was then centrifuged at 16,000 RPM for 10 minutes at 4° C. Twenty (20) μL of the supernatant was loaded into a 96-well white plate and luminescence measured following addition of luciferase reagent (Promega Luciferase Assay System). Luciferase activity was determined by comparing luminescence of the homogenized samples to luciferase protein standards. To account for any quenching of luminescence by components in the liver homogenate, luciferase was added to the liver homogenates of untreated animals and the resulting luminescence measured. The resulting quench factor was applied to all samples to obtain the corrected luciferase activity, and normalized per unit mass of tissue analyzed.
# [2] = Particle characteristics of LNPs containing luciferase mRNA and novel ionizable lipids; format: physicochemical; conditions: luciferase mRNA LNP 1.6:54.6:32.8:10.9
# Procedure: The lipid solution contains 4 components: a PEG-conjugated lipid, an ionizable lipid, cholesterol, and a phospholipid (e.g., DSPC). Lipid stocks were prepared using the lipid identities and molar ratios as described, to achieve a total concentration of ˜7 mg/mL in 100% ethanol. Firefly luciferase mRNA (TriLink Biotechnologies, L-7202) or ornithine transcarbamylase (OTC) mRNA (TriLink Biotechnologies, custom designed) was diluted in acetate, pH 5 buffer and nuclease free water to achieve a target concentration of 0.366 mg/mL mRNA in 100 mM acetate, pH 5. Equal volumes of the lipid and nucleic acid solutions were blended at a flow rate of 400 mL/min through a T-connector, and diluted with ˜4 volumes of PBS, pH 7.4. Formulations were placed in Slide-A-Lyzer dialysis units (MWCO 10,000) and dialyzed overnight against 10 mM Tris, 500 mM NaCl, pH 8 buffer. Following dialysis, the formulations were concentrated to ˜0.6 mg/mL using VivaSpin concentrator units (MWCO 100,000) and dialyzed overnight against 5 mM Tris, 10% sucrose, pH 8 buffer. Formulations were filtered through a 0.2 μm syringe filter (PES membrane). Nucleic acid concentration was determined by the RiboGreen assay. Particle size and polydispersity were determined using a Malvern Nano Series Zetasizer.
# LNP formulations containing novel ionizable lipids all produced stable particles with high encapsulation efficiency (Tables 1-7).
smiles,measurement,setting,value
"CCCCCCCCCCC(CCCCCCC(=O)OCC(CCCCCC)CCCCCCCC)N(CCCCCCCCCC)C(=O)CCCN(C)C (stereo not shown) [Compound 1, 2-Hexyldecyl 8-(N-decyl-4-(dimethylamino)butanamido)-octadecanoate]",Luc Activity,[1]; Table 12,1.70E+08 pg/g liver
same,Final Product % EE,[2]; Table 5,99%
same,Final Product PDI,[2]; Table 5,0.04
same,Final Product Z-avg,[2]; Table 5,77 nm
"CCCCCCCCCCC(CCCCC(=O)OCC(CCCCCC)CCCCCCCC)N(CCCCCCCCCC)C(=O)CCCN(C)C (stereo not shown) [Compound 2, 2-Hexyldecyl 6-(N-decyl-4-(dimethylamino)butanamido)hexadecanoate]",Luc Activity,[1]; Table 12,7.11E+07 pg/g liver
same,Final Product % EE,[2]; Table 5,96%
same,Final Product PDI,[2]; Table 5,0.08
same,Final Product Z-avg,[2]; Table 5,81 nm
"CCCCCCCCCC(CC(=O)OCC(CCCCCC)CCCCCCCC)N(CCCN(C)C)C(=O)CCCCC(=O)OCC(CCCC)CCCCCC (stereo not shown) [Compound 21, 2-hexyldecyl 3-{6-[(2-butyloctyl)oxy]-N-[3-(dimethylamino)propyl]-6-oxohexanamido}dodecanoate]",Luc Activity,[1]; Table 9,4.58E+07 pg/g liver
same,Final Product % EE,[2]; Table 2,98%
same,Final Product PDI,[2]; Table 2,(0.03)
same,Final Product Z-avg,[2]; Table 2,77 nm
"CCCCCCCCCC(CC(=O)OCC(CCCCCC)CCCCCCCC)N(CCCN(C)C)C(=O)CCCCCCC(=O)OCC(CCCC)CCCCCC (stereo not shown) [Compound 22, 2-Hexyldecyl 3-(8-((2-butyloctyl)oxy)-N-(3-(dimethylamino)propyl)-8-oxooctanamido)-dodecanoate]",Luc Activity,[1]; Table 9,4.71E+07 pg/g liver
same,Final Product % EE,[2]; Table 2,98%
same,Final Product PDI,[2]; Table 2,(0.04)
same,Final Product Z-avg,[2]; Table 2,74 nm
"CCCCCCCCCCC(CCCC(=O)OCC(CCCCCC)CCCCCCCC)N(CCCN(C)C)C(=O)CCCCCCC(=O)OCC(CCCC)CCCCCC (stereo not shown) [Compound 25, 2-Hexyldecyl 5-(8-((2-butyloctyl)oxy)-N-(3-(dimethylamino)propyl)-8-oxooctanamido)-pentadecanoate]",Luc Activity,[1]; Table 9,7.76E+06 pg/g liver
same,Final Product % EE,[2]; Table 2,99%
same,Final Product PDI,[2]; Table 2,(0.03)
same,Final Product Z-avg,[2]; Table 2,78 nm
"CCCCCCCCCCC(CCCCCC(=O)OCCCCC(CCCCCCCC)CCCCCCCC)N(CCCN(C)C)C(=O)CCCCCCC(=O)OC(CC)CCCCCCCC (stereo not shown) [Compound 27, 5-Octyltridecyl 7-(N-(3-(dimethylamino)propyl)-8-oxo-8-(undecan-3-yloxy)octanamido)-heptadecanoate]",Luc Activity,[1]; Table 11,9.17E+06 pg/g liver
same,Final Product % EE,[2]; Table 4,98%
same,Final Product PDI,[2]; Table 4,0.04
same,Final Product Z-avg,[2]; Table 4,86 nm
"CCCCCCCCCCC(CCCCCC(=O)OCCCCC(CCCCCCCC)CCCCCCCC)N(CCN(C)C)C(=O)CCCCCCC(=O)OC(CC)CCCCCCCC (stereo not shown) [Compound 28, 5-Octyltridecyl 7-(N-(2-(dimethylamino)ethyl)-8-oxo-8-(undecan-3-yloxy)octanamido)-heptadecanoate]",Luc Activity,[1]; Table 11,6.50E+06 pg/g liver
same,Final Product % EE,[2]; Table 4,95%
same,Final Product PDI,[2]; Table 4,0.20
same,Final Product Z-avg,[2]; Table 4,90 nm
"CCCCCCCCCCC(CCCCCC(=O)OCC(CCCCCC)CCCCCCCC)N(CCCN(C)C)C(=O)CCCCCCC(=O)OCC(CCCC)CCCCCC (stereo not shown) [Compound 29, 2-Hexyldecyl 7-(8-((2-butyloctyl)oxy)-N-(3-(dimethylamino)propyl)-8-oxooctanamido)-heptadecanoate]",Luc Activity,[1]; Table 12,6.74E+07 pg/g liver
same,Final Product % EE,[2]; Table 5,98%
same,Final Product PDI,[2]; Table 5,0.02
same,Final Product Z-avg,[2]; Table 5,80 nm
CCCCCCCCCCC(CCCCCCC(=O)OCCC(CCCCC)CCCCC)N(CCCN(C)C)C(=O)CCCCCCC(=O)OCCC(CCCCC)CCCCC (stereo not shown) [Compound 30],Luc Activity,[1]; Table 12,3.76E+07 pg/g liver
CCCCCCCCCCC(CCCCCCC(=O)OC(CCCCCCCC)CCCCCCCC)N(CCCN(C)C)C(=O)CCCCCCC(=O)OCCC(CCCCC)CCCCC (stereo not shown) [Compound 31],Luc Activity,[1]; Table 12,1.47E+07 pg/g liver
CCCCC/C=C\CCCC(CCC/C=C\CCCCC)CN(C(=O)CCCCN(C)C)C(CCCCCCCCCC)CCCCCCC(=O)OCCCCCCCCCC (stereo not shown) [Compound 35],Luc Activity,[1]; Table 11,1.40E+07 pg/g liver
CCCCC/C=C\CCCC(CCC/C=C\CCCCC)CN(C(=O)CCCN(C)C)C(CCCCCCCCCC)CCCCCCC(=O)OCCCCCCCCCC (stereo not shown) [Compound 36],Luc Activity,[1]; Table 11,5.54E+06 pg/g liver
CCCCC/C=C\CCCC(CCC/C=C\CCCCC)CN(C(=O)CCN(C)C)C(CCCCCCCCCC)CCCCCCC(=O)OCCCCCCCCCC (stereo not shown) [Compound 37],Luc Activity,[1]; Table 11,3.01E+06 pg/g liver
